Results as given in publication PMC3641841 (2010).

Tested on: Oxytricha Nova quadruplex (GGGGTTTTGGGG)2 (DNA, G4) GGGGTTTTGGGG
Assay: ITC
Conditions: 10 mM sodium cacodylate, 0.5 mM EDTA, pH 7.0, 20 °C

Row | SMILES | Ka (K+ 90 mM) | Ka (Na+ 100 mM)
1 | NC[C@@H]1O[C@H](O[C@H]2[C@@H](O)[C@H](O[C@@H]3[C@@H](O)[C@H](N)C[C@H](N)[C@H]3O[C@H]3O[C@H](CN)[C@@H](O)[C@H](O)[C@H]3N)O[C@@H]2CO)[C@H](N)[C@@H](O)[C@@H]1O | 1.15±0.08 × 10^5 M^−1 | 1.03±0.50 × 10^5 M^−1
2 | NC[C@@H]1O[C@H](O[C@H]2[C@@H](O)[C@H](O[C@@H]3[C@@H](O)[C@H](N)C[C@H](N)[C@H]3O[C@H]3O[C@H](CO)[C@@H](O)[C@H](O)[C@H]3N)O[C@@H]2CO)[C@H](N)[C@@H](O)[C@@H]1O | 0.45±0.01 × 10^5 M^−1 | –
